# “And” between values parts separate entries of the source, which are not always exact repeats. Equal values may be shown once.
# Key:
# Assay type in all cases: cell-based
# AHAS [1] = experiment: in vivo AHAS assay, maize leaf discs with external supplement
# Method: (§1) The procedure for the preparation of an in vivo AHAS assay is described below:
# (§2) For the experiments, plants are grown from seed in soil in a greenhouse. Most experiments used wild type and imidazolinone resistant varieties of wheat, canola, rice, sunflower, and maize.
# (§3) For the assay, a a microtiter plate is set up with 100 μl of one of the following solutions in each well: • a. […] Plant., 15 473-497 (1962)); 500 μM CPCA (cyclopropyldicarboxylic acid); • b. Solution B: Solution A+alanine (or other supplements); • c. Solution C: Solution A+a pyruvate salt (or other supplements).
# (§4) Plant material is excised from the newest emerging, rapidly growing leaf or stem from the test plant and placed in one of the microtiter plates. Usually, 5 mm leaf discs are cut from the newest emerging leaf. At least 2 discs per plant are cut. One disc is put in a well with Solution A and the other disc in a well with one of the other Solutions B or C (what solution are you using for background?).
# (§5) After all wells in the microtiter plate contain plant material, the plate is covered with the microtiter plate cover and the plate with material is placed in a chamber with continuous fluorescent lights for 12 to 16 hours. The incubation is stopped by placing the plate in −20° C. freezer. After tissue and solutions freeze, the plate is thawed at room temperature and 25 μL of 5% sulfuric acid are added to each well. After incubation at 60° C. for 15 minutes, 175 μL of a freshly prepared mixture of α-naphthol (2.5%) and creatine (0.25%) in 2 N NaOH are added to each well and the plate is incubated at 60° C. for 15 minutes.
# (§6) 200 μL from each well are transferred to a new plate and OD530 on microtiter plate is readed by a spectrophotometer.
# AHAS [2] = experiment: in vivo AHAS assay, wheat leaf discs with external supplement; conditions: 14 hours
# Method: as §1, §2
# (§7) For the assay, a a microtiter plate is set up with 100 μl of one of the following solutions in each well: • a. Solution A: 10 mM phosphate buffer, pH 6; 10% Murashige and Skoog basal mineral salts (according to Murashige, T. and Skoog, F., Physiol. Plant., 15 473-497 (1962)); 500 μM CPCA (cyclopropyldicarboxylic acid); • b. Solution B: Solution A+alanine (or other supplements); • c. Solution C: Solution A+a pyruvate salt (or other supplements).
# as §4, with “background?). […]” for “background?).”
# as §6
# AHAS [3] = experiment: in vivo AHAS assay, rice leaf discs with external supplement
# Method: as §1, §2, §3, §4, §5, §6
# AHAS [4] = experiment: in vivo AHAS assay, sunflower leaf discs with external supplement; conditions: 14 hours
# Method: as §1, §2, §3, §4, §5, §6
# AHAS [5] = experiment: in vivo AHAS assay, canola leaf discs with external supplement; conditions: for % of No Alaninor Pyruvate: Pyruvate 0 mM
# Method: as §1, §2, §7, §4, §5, §6
# AHAS [6] = experiment: as above
# [7] = alanine 1.000 % vs 0.000 %, 14 hours
# [8] = alanine 1.000 %, 14 hours, 500 μM CPCA
# [9] = canola, Alanine (100 mM), replicates 1-3, 14 hours
smiles,measurement,setting,value
"C[C@H](N)C(=O)O [Alanine, L-alanine]",Ratio (Ala/No Ala),AHAS [1]; [7],1.7
same,OD 530,AHAS [1]; [8],0.203
same,Ratio (Ala/No Ala),"AHAS [1]; pH 4, 14 hours",1.89
same,"in vivo AHAS activity, Alanine (%) 1","AHAS [1]; pH 4, alanine 1 %, 14 hours",0.909
same,Ratio (Ala/No Ala),"AHAS [1]; pH 5, 14 hours",3.50
same,"in vivo AHAS activity, Alanine (%) 1","AHAS [1]; pH 5, alanine 1 %, 14 hours",0.847
same,Ratio (Ala/No Ala),"AHAS [1]; pH 6, 14 hours",5.71
same,"in vivo AHAS activity, Alanine (%) 1","AHAS [1]; pH 6, alanine 1 %, 14 hours",1.033
same,Ratio (Ala/No Ala),"AHAS [1]; pH 7, 14 hours",4.32
same,"in vivo AHAS activity, Alanine (%) 1","AHAS [1]; pH 7, alanine 1 %, 14 hours",1.128
same,Ratio (Ala/No Ala),AHAS [2]; alanine 1.000 % vs 0.000 %,2.1
same,OD 530,"AHAS [2]; alanine 1.000 %, 500 μM CPCA",0.832
same,Ratio (Ala/No Ala),AHAS [3]; [7],7.0
same,OD 530,AHAS [3]; [8],1.257
same,Ratio (Ala/No Ala),"AHAS [3]; pH 4, 14 hours",2.83
same,"in vivo AHAS activity, Alanine (%) 1","AHAS [3]; pH 4, alanine 1 %, 14 hours",0.903
same,Ratio (Ala/No Ala),"AHAS [3]; pH 5, 14 hours",3.57
same,"in vivo AHAS activity, Alanine (%) 1","AHAS [3]; pH 5, alanine 1 %, 14 hours",0.731
same,Ratio (Ala/No Ala),"AHAS [3]; pH 6, 14 hours",3.65
same,"in vivo AHAS activity, Alanine (%) 1","AHAS [3]; pH 6, alanine 1 %, 14 hours",0.639
same,Ratio (Ala/No Ala),"AHAS [3]; pH 7, 14 hours",3.31
same,"in vivo AHAS activity, Alanine (%) 1","AHAS [3]; pH 7, alanine 1 %, 14 hours",0.58
same,Ratio (Ala/No Ala),"AHAS [4]; Sunflower, alanine 1.000 % vs 0.000 %",3.8
same,OD 530,"AHAS [4]; Sunflower, alanine 1.000 %, 500 μM CPCA",1.857
same,Ratio (Ala/No Ala),"AHAS [4]; Sunflower, pH 4",4.67
same,"in vivo AHAS activity, Alanine (%) 1","AHAS [4]; Sunflower, pH 4",1.682
same,Ratio (Ala/No Ala),"AHAS [4]; Sunflower, pH 5",3.62
same,"in vivo AHAS activity, Alanine (%) 1","AHAS [4]; Sunflower, pH 5",0.745
same,Ratio (Ala/No Ala),"AHAS [4]; Sunflower, pH 6",5.20
same,"in vivo AHAS activity, Alanine (%) 1","AHAS [4]; Sunflower, pH 6",0.843
same,Ratio (Ala/No Ala),"AHAS [4]; Sunflower, pH 7",4.10
same,"in vivo AHAS activity, Alanine (%) 1","AHAS [4]; Sunflower, pH 7",0.48
same,OD 530,"AHAS [4]; sunflower, 1% Alanine, disc size 0.25 cm^2, 7 discs",1.861
same,OD 530,"AHAS [4]; sunflower, 1% Alanine, disc size 0.56 cm^2, 3 discs",0.695
same,OD 530,"AHAS [4]; sunflower, 1% Alanine, disc size 0.82 cm^2, 2 discs",0.646
same,OD 530,"AHAS [4]; sunflower, 1% Alanine, disc size 1.76 cm^2, 1 disc",0.447
same,Ratio (Ala/No Ala),"AHAS [5]; Canola, alanine 1.000 % vs 0.000 %, 14 hours",5.4
same,OD 530,"AHAS [5]; Canola, alanine 1.000 %, 14 hours, 500 μM CPCA",2.838
same,"in vivo AHAS activity, Alanine (%) 1","AHAS [5]; Canola, pH 4, alanine 1 %, 14 hours",2.271
same,Ratio (Ala/No Ala),"AHAS [5]; Canola, pH 5, 14 hours",2.94
same,"in vivo AHAS activity, Alanine (%) 1","AHAS [5]; Canola, pH 5, alanine 1 %, 14 hours",2.383
same,Ratio (Ala/No Ala),"AHAS [5]; Canola, pH 6, 14 hours",3.12
same,"in vivo AHAS activity, Alanine (%) 1","AHAS [5]; Canola, pH 6, alanine 1 %, 14 hours",2.036
same,Ratio (Ala/No Ala),"AHAS [5]; Canola, pH 7, 14 hours",2.38
same,Increased Activity (%),"AHAS [5]; canola 45A71, alanine 0.063 % compared with no alanine",150%
same,OD 530,"AHAS [5]; canola 45A71, alanine 0.063 %, pH 6, 14 hours",0.785
same,Increased Activity (%),"AHAS [5]; canola 45A71, alanine 0.125 % compared with no alanine",182%
same,OD 530,"AHAS [5]; canola 45A71, alanine 0.125 %, pH 6, 14 hours",0.955
same,Increased Activity (%),"AHAS [5]; canola 45A71, alanine 0.25 % compared with no alanine",181%
same,OD 530,"AHAS [5]; canola 45A71, alanine 0.25 %, pH 6, 14 hours",0.946
same,Increased Activity (%),"AHAS [5]; canola 45A71, alanine 0.5 % compared with no alanine",198%
same,OD 530,"AHAS [5]; canola 45A71, alanine 0.5 %, pH 6, 14 hours",1.038
same,Increased Activity (%),"AHAS [5]; canola 45A71, alanine 1 % compared with no alanine",262%
same,OD 530,"AHAS [5]; canola 45A71, alanine 1 %, pH 6, 14 hours",1.373
same,Increased Activity (%),"AHAS [5]; canola 45A71, alanine 2 % compared with no alanine",290%
same,OD 530,"AHAS [5]; canola 45A71, alanine 2 %, pH 6, 14 hours",1.518
same,Increased Activity (%),"AHAS [5]; canola 45A71, alanine 4 % compared with no alanine",190%
same,OD 530,"AHAS [5]; canola 45A71, alanine 4 %, pH 6, 14 hours",0.997
same,Increased Activity (%),"AHAS [5]; canola Westar, alanine 0.063 % compared with no alanine",195%
same,OD 530,"AHAS [5]; canola Westar, alanine 0.063 %, pH 6, 14 hours",0.978
same,Increased Activity (%),"AHAS [5]; canola Westar, alanine 0.125 % compared with no alanine",177%
same,OD 530,"AHAS [5]; canola Westar, alanine 0.125 %, pH 6, 14 hours",0.885
same,Increased Activity (%),"AHAS [5]; canola Westar, alanine 0.25 % compared with no alanine",239%
same,OD 530,"AHAS [5]; canola Westar, alanine 0.25 %, pH 6, 14 hours",1.197
same,Increased Activity (%),"AHAS [5]; canola Westar, alanine 0.5 % compared with no alanine",229%
same,OD 530,"AHAS [5]; canola Westar, alanine 0.5 %, pH 6, 14 hours",1.149
same,Increased Activity (%),"AHAS [5]; canola Westar, alanine 1 % compared with no alanine",396%
same,OD 530,"AHAS [5]; canola Westar, alanine 1 %, pH 6, 14 hours",1.983
same,Increased Activity (%),"AHAS [5]; canola Westar, alanine 2 % compared with no alanine",250%
same,OD 530,"AHAS [5]; canola Westar, alanine 2 %, pH 6, 14 hours",1.25
same,Increased Activity (%),"AHAS [5]; canola Westar, alanine 4 % compared with no alanine",201%
same,OD 530,"AHAS [5]; canola Westar, alanine 4 %, pH 6, 14 hours",1.009
same,% of No Alaninor Pyruvate,"AHAS [5]; canola, Alanine 0.5 %, 14 hours",144%
same,% of No Alaninor Pyruvate,"AHAS [5]; canola, Alanine 1 %, 14 hours",174%
same,% of 0/0,AHAS [5]; [9],129% and 104% and 100%
same,"OD 530, Avg. of the treated discs",AHAS [5]; [9],1.538 and 1.574 and 1.298
same,"OD 530, Treated","AHAS [5]; canola, Alanine (100 mM), single treated discs, replicates 1-3, 14 hours",1.529 and 1.487 and 1.335 and 1.760 and 1.691 and 1.551 and 1.498 and 1.571 and 1.007
same,Ratio (Ala/No Ala),"AHAS [6]; pH 4, 14 hours",2.78
same,"in vivo AHAS activity, Alanine (%) 1","AHAS [6]; pH 7, alanine 1 %, 14 hours",2.299
